Counter-ions that a name gives are not always drawn.
molecular target: T1, h FPR2 (Homo sapiens, UniProt P25090); test: Agonistic activity in hFPR2-Aq-CHO cells (FLIPR Calcium 5 fluorescence assay); format: cell-based; conditions: 11 point half log dilution, final assay concentration from 10µM
T1 construct: expressed in transfected cells
T1 sequence (P25090 1-351): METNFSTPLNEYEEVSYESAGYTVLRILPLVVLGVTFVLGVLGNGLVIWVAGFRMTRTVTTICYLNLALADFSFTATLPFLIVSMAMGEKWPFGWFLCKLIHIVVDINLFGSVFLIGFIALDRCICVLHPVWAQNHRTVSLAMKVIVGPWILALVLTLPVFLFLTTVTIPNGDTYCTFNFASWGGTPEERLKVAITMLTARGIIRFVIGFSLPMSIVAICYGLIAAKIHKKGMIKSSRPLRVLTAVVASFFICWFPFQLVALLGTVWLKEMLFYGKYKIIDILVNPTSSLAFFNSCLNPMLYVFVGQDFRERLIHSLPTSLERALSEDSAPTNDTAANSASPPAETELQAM
Procedure, shortened: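 hFPR2-Aq-CHO cells were loaded with Calcium 5 dye for 30 min at 37 °C and equilibrated 10 min at room temperature. Compound (11 points, 10 µM to 100 pM final) was added in HBSS/HEPES/probenecid buffer pH 7.4. Fluorescence rise over basal across 5 min, relative to no-compound wells, gave EC50.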

Question: With Cc1cc(CN2CC[C@@H](NC(=O)Nc3ccc(Cl)cc3)[C@H](c3ccc(Cl)s3)C2)no1 (single isomer, unassigned) [Ex-44, trans-1-(4-chlorophenyl)-3-[3-(5-chlorothiophen-2-yl)-1-[(5-methyl-1,2-oxazol-3-yl)methyl]piperidin-4-yl]urea] as the molecule, how does the EC50 read?
Answer: The EC50 was 1 nM.

Question: How did the EC50 turn out when O=C(Nc1ccc(Cl)cc1)N[C@@H]1CCN(Cc2ncccn2)C[C@H]1c1ccc(Cl)s1 (single isomer, unassigned) [Ex-46, trans-1-(4-chlorophenyl)-3-[3-(5-chlorothiophen-2-yl)-1-(pyrimidin-2-ylmethyl)piperidin-4-yl]urea] was run?
Answer: The EC50 was 0.4 nM.

Question: Which EC50 does the source give for O=C(Nc1ccc(Cl)cc1)N[C@@H]1CCN(Cc2ncccn2)C[C@H]1c1ccc(Cl)s1 (single isomer, unassigned) [Ex-47, trans-1-(4-chlorophenyl)-3-[3-(5-chlorothiophen-2-yl)-1-(pyrimidin-2-ylmethyl)piperidin-4-yl]urea] here?
Answer: Its EC50 is 65 nM.

Question: Which EC50 does the source give for Cc1cc(NC(=O)N[C@@H]2CCN(Cc3cc(C)on3)C[C@H]2c2ccc(Cl)s2)sn1 (single isomer, unassigned) [Ex-48, trans-1-[3-(5-chlorothiophen-2-yl)-1-[(5-methyl-1,2-oxazol-3-yl)methyl]piperidin-4-yl]-3-(3-methyl-1,2-thiazol-5-yl)urea] here?
Answer: The EC50 was 72 nM.

Question: Cc1cc(NC(=O)N[C@@H]2CCN(Cc3cc(C)on3)C[C@H]2c2ccc(Cl)s2)sn1 (single isomer, unassigned) [Ex-49, trans-1-[3-(5-chlorothiophen-2-yl)-1-[(5-methyl-1,2-oxazol-3-yl)methyl]piperidin-4-yl]-3-(3-methyl-1,2-thiazol-5-yl)urea] was tested. Which EC50 did it give?
Answer: Its EC50 is 0.3 nM.

Question: How did the EC50 turn out when COc1ccc([C@@H]2CN(CC3CCOCC3)CC[C@H]2NC(=O)Nc2ccc(Cl)cc2)nc1 (single isomer, unassigned) [Ex-51, trans-1-(4-chlorophenyl)-3-[3-(5-methoxypyridin-2-yl)-1-(oxan-4-ylmethyl)piperidin-4-yl]urea] was run?
Answer: The EC50 was 0.4 nM.

Question: How did the EC50 turn out when COc1ccc([C@@H]2CN(C(=O)c3cnccc3C)CC[C@H]2NC(=O)Nc2ccc(Cl)cc2)nc1 (single isomer, unassigned) [Ex-52, trans-1-(4-chlorophenyl)-3-[3-(5-methoxypyridin-2-yl)-1-[(4-methylpyridin-3-yl)carbonyl]piperidin-4-yl]urea] was run?
Answer: Its EC50 is 0.5 nM.

Question: With COc1ccc([C@@H]2CN(C(=O)c3cnccc3C)CC[C@H]2NC(=O)Nc2ccc(Cl)cc2)nc1 (single isomer, unassigned) [Ex-53, trans-1-(4-chlorophenyl)-3-[3-(5-methoxypyridin-2-yl)-1-[(4-methylpyridin-3-yl)carbonyl]piperidin-4-yl]urea] as the molecule, how does the EC50 read?
Answer: The EC50 was 50 nM.

Question: Which EC50 does the source give for COc1ccc([C@@H]2CN(C(=O)c3ccc(C)nc3)CC[C@H]2NC(=O)Nc2ccc(Cl)cc2)nc1 (single isomer, unassigned) [Ex-54, trans-1-(4-chlorophenyl)-3-[3-(5-methoxypyridin-2-yl)-1-[(6-methylpyridin-3-yl)carbonyl]piperidin-4-yl]urea] here?
Answer: The EC50 was 0.6 nM.

Question: With COc1ccc([C@@H]2CN(C(=O)c3ccc(C)nc3)CC[C@H]2NC(=O)Nc2ccc(Cl)cc2)nc1 (single isomer, unassigned) [Ex-55, trans-1-(4-chlorophenyl)-3-[3-(5-methoxypyridin-2-yl)-1-[(6-methylpyridin-3-yl)carbonyl]piperidin-4-yl]urea] as the molecule, how does the EC50 read?
Answer: The EC50 was 40 nM.

Question: With CS(=O)(=O)n1ccc(CN2CC[C@@H](NC(=O)Nc3ccccc3)[C@H](c3ccc(Cl)s3)C2)n1 (single isomer, unassigned) [Ex-56, trans-1-(-3-(5-chlorothiophen-2-yl)-1-((1-(methylsulfonyl)-1H-pyrazol-3-yl)methyl)piperidin-4-yl)-3-phenylurea] as the molecule, how does the EC50 read?
Answer: Its EC50 is 0.9 nM.

Question: How did the EC50 turn out when CS(=O)(=O)n1ccc(CN2CC[C@@H](NC(=O)Nc3ccccc3)[C@H](c3ccc(Cl)s3)C2)n1 (single isomer, unassigned) [Ex-57, trans-1-(-3-(5-chlorothiophen-2-yl)-1-((1-(methylsulfonyl)-1H-pyrazol-3-yl)methyl)piperidin-4-yl)-3-phenylurea] was run?
Answer: Its EC50 is 55 nM.

Question: How did the EC50 turn out when COc1ccc([C@@H]2CN(Cc3ccn(S(C)(=O)=O)n3)CC[C@H]2NC(=O)Nc2ccccc2)nc1 (single isomer, unassigned) [Ex-58, trans-3-[1-[(1-methanesulfonyl-1H-pyrazol-3-yl)methyl]-3-(5-methoxypyridin-2-yl)piperidin-4-yl]-1-phenylurea] was run?
Answer: Its EC50 is 0.4 nM.

Question: With Cc1cc(NC(=O)N[C@@H]2CCN(Cc3ncccn3)C[C@H]2c2ccc(Cl)s2)sn1 (single isomer, unassigned) [Ex-62, trans-1-[3-(5-chlorothiophen-2-yl)-1-(pyrimidin-2-ylmethyl)piperidin-4-yl]-3-(3-methyl-1,2-thiazol-5-yl)urea] as the molecule, how does the EC50 read?
Answer: The EC50 was 0.2 nM.

Question: CS(=O)(=O)n1ccc(CN2CC[C@@H](NC(=O)Nc3ccc(Cl)cc3)[C@H](c3ccc(Cl)s3)C2)n1 (single isomer, unassigned) [Ex-77, trans-1-(4-chlorophenyl)-3-[3-(5-chlorothiophen-2-yl)-1-[(1-methanesulfonyl-1H-pyrazol-3-yl)methyl]piperidin-4-yl]urea] was tested. Which EC50 did it give?
Answer: The EC50 was 0.06 nM.

Question: With CS(=O)(=O)n1ccc(CN2CC[C@@H](NC(=O)Nc3ccc(Cl)cc3)[C@H](c3ccc(Cl)s3)C2)n1 (single isomer, unassigned) [Ex-78, trans-1-(4-chlorophenyl)-3-[3-(5-chlorothiophen-2-yl)-1-[(1-methanesulfonyl-1H-pyrazol-3-yl)methyl]piperidin-4-yl]urea] as the molecule, how does the EC50 read?
Answer: The EC50 was 52 nM.

Question: Which EC50 does the source give for COc1ccc([C@@H]2CN(CC3CCNCC3)CC[C@H]2NC(=O)Nc2ccc(Cl)cc2)nc1 (single isomer, unassigned) [Ex-82, trans-1-(4-chlorophenyl)-3-(3-(5-methoxypyridin-2-yl)-1-(piperidin-4-ylmethyl)piperidin-4-yl)urea] here?
Answer: The EC50 was 37 nM.

Question: With O=C(Nc1ccc(Cl)cc1)N[C@@H]1CCN(CC2CCNCC2)C[C@H]1c1ccc(Cl)s1 (single isomer, unassigned) [Ex-83, trans-1-(4-chlorophenyl)-3-[3-(5-chlorothiophen-2-yl)-1-(piperidin-4-ylmethyl)piperidin-4-yl]urea dihydrochloride] as the molecule, how does the EC50 read?
Answer: Its EC50 is 0.2 nM.

Question: O=C(Nc1ccc(Cl)cc1)N[C@@H]1CCN(CC2CCNCC2)C[C@H]1c1ccc(Cl)s1 (single isomer, unassigned) [Ex-84, trans-1-(4-chlorophenyl)-3-[3-(5-chlorothiophen-2-yl)-1-(piperidin-4-ylmethyl)piperidin-4-yl]urea dihydrochloride] was tested. Which EC50 did it give?
Answer: The EC50 was 33 nM.

Question: How did the EC50 turn out when O=C(Nc1ccc(Cl)cc1)N[C@@H]1CCN(CC2CCOCC2)C[C@H]1c1ccc(Cl)s1 (single isomer, unassigned) [Ex-85, trans-1-(4-chlorophenyl)-3-(3-(5-chlorothiophen-2-yl)-1-((tetrahydro-2H-pyran-4-yl)methyl)piperidin-4-yl)urea] was run?
Answer: Its EC50 is 14 nM.

Question: How did the EC50 turn out when COc1ccc([C@@H]2CN(C(=O)c3cnccc3C(F)(F)F)CC[C@H]2NC(=O)Nc2ccc(Cl)cc2)nc1 (single isomer, unassigned) [Ex-99, trans-1-(4-chlorophenyl)-3-[3-(5-methoxypyridin-2-yl)-1-{[4-(trifluoromethyl)pyridin-3-yl]carbonyl}piperidin-4-yl]urea] was run?
Answer: The EC50 was 0.4 nM.

Question: Which EC50 does the source give for COc1ccc([C@@H]2CN(C(=O)c3ccc(C(F)(F)F)nc3)CC[C@H]2NC(=O)Nc2ccc(Cl)cc2)nc1 (single isomer, unassigned) [Ex-100, trans-1-(4-chlorophenyl)-3-[3-(5-methoxypyridin-2-yl)-1-{[6-(trifluoromethyl)pyridin-3-yl]carbonyl}piperidin-4-yl]urea] here?
Answer: Its EC50 is 93 nM.

Question: How did the EC50 turn out when COc1ccc([C@@H]2CN(C(=O)c3ccc(C(F)(F)F)nc3)CC[C@H]2NC(=O)Nc2ccc(Cl)cc2)nc1 (single isomer, unassigned) [Ex-101, trans-1-(4-chlorophenyl)-3-[(5-methoxypyridin-2-yl)-1-{[6-(trifluoromethyl)pyridin-3-yl]carbonyl}piperidin-4-yl]urea] was run?
Answer: Its EC50 is 0.11 nM.

Question: For COc1ccc([C@@H]2CN(CC3CCNCC3)CC[C@H]2NC(=O)Nc2ccc(Cl)cc2)nc1 (single isomer, unassigned) [Ex-124, trans-1-(4-chlorophenyl)-3-(3-(5-methoxypyridin-2-yl)-1-(piperidin-4-ylmethyl)piperidin-4-yl)urea], which EC50 is on record?
Answer: Its EC50 is 0.03 nM.

Question: Which EC50 does the source give for COc1ccc([C@@H]2CN(C(=O)C3CC(O)C3)CC[C@H]2NC(=O)Nc2cc(C)ns2)nc1 (single isomer, unassigned) [Ex-138, trans-1-[1-(3-Hydroxy-cyclobutanecarbonyl)-3-(5-methoxy-pyridin-2-yl)-piperidin-4-yl]-3-(3-methyl-isothiazol-5-yl)-urea] here?
Answer: The EC50 was 7 nM.

Question: Which EC50 does the source give for COc1ccc([C@@H]2CNCC[C@H]2NC(=O)Nc2ccc(Cl)cc2)nc1 (single isomer, unassigned) [Ex-168, trans-1-(4-Chlorophenyl)-3-[3-(5-methoxy-pyridin-2-yl)-piperidin-4-yl]-urea] here?
Answer: The EC50 was 0.9 nM.

Question: COc1ccc([C@@H]2CN(CC(N)=O)CC[C@H]2NC(=O)Nc2ccc(Cl)cc2)nc1 (single isomer, unassigned) [Ex-170, trans-2-[4-[[(4-Chlorophenyl)-carbamoyl]amino]-3-(5-methoxy-pyridin-2-yl)-piperidin-1-yl]-acetamide] was tested. Which EC50 did it give?
Answer: Its EC50 is 0.3 nM.

Question: How did the EC50 turn out when COc1ccc([C@@H]2CN(CC3CC3)CC[C@H]2NC(=O)Nc2ccc(Cl)cc2)nc1 (single isomer, unassigned) [Ex-172, trans-1-(4-Chlorophenyl)-3-[1-(cyclopropyl-methyl)-3-(5-methoxy-pyridin-2-yl)-piperidin-4-yl]-urea] was run?
Answer: The EC50 was 0.18 nM.
